Test results reported in patent US20200405697A1, “Antitumor Agent” (Taiho Pharmaceutical Co., Ltd, priority 2017, published 2020).

System: A549 (Human lung cancer cell line)
Assay: Effect of combination of sulfonamide compound and other antitumor agent (CellTiter-Glo, combination index): A549
[1] = Table 36: Example Compound 1 345 nM + Prexasertib 1.98 nM, molar ratio 1:0.005730
[2] = Table 36: Example Compound 1 345 nM + SCH900776 910 nM, molar ratio 1:2.639
[3] = Table 36: Example Compound 1 517 nM + AZD6738 1037 nM, molar ratio 1:2.005
[4] = Table 36: Example Compound 1 517 nM + Fludarabine nucleoside 5910 nM, molar ratio 1:11.44
[5] = Table 36: Example Compound 1 517 nM + Prexasertib 2.96 nM, molar ratio 1:0.005730
[6] = Table 36: Example Compound 1 517 nM + SCH900776 1360 nM, molar ratio 1:2.639
[7] = Table 36: Example Compound 1 775 nM + AZD6738 1554 nM, molar ratio 1:2.005
[8] = Table 36: Example Compound 1 775 nM + Decitabine 1340 nM, molar ratio 1:1.733
[9] = Table 36: Example Compound 1 775 nM + Fludarabine nucleoside 8870 nM, molar ratio 1:11.44
[10] = Table 36: Example Compound 1 775 nM + Guadecitabine 469 nM, molar ratio 1:0.6048
[11] = Table 36: Example Compound 1 775 nM + Prexasertib 4.44 nM, molar ratio 1:0.005730
[12] = Table 36: Example Compound 1 775 nM + SCH900776 2050 nM, molar ratio 1:2.639
[13] = Table 36: Example Compound 1 1160 nM + AZD6738 2326 nM, molar ratio 1:2.005
[14] = Table 36: Example Compound 1 1160 nM + Cytarabine 110 nM, molar ratio 1:0.09524
[15] = Table 36: Example Compound 1 1160 nM + Decitabine 2010 nM, molar ratio 1:1.733
[16] = Table 36: Example Compound 1 1160 nM + Fludarabine nucleoside 13300 nM, molar ratio 1:11.44
[17] = Table 36: Example Compound 1 1160 nM + Gemcitabine 5.58 nM, molar ratio 1:0.004813
[18] = Table 36: Example Compound 1 1160 nM + Guadecitabine 702 nM, molar ratio 1:0.6048
[19] = Table 36: Example Compound 1 1160 nM + SCH900776 3060 nM, molar ratio 1:2.639
[20] = Table 36: Example Compound 1 1160 nM + Sunitinib 1870 nM, molar ratio 1:1.608
[21] = Table 36: Example Compound 1 1160 nM + Trifluridine 430 nM, molar ratio 1:0.3703
[22] = Table 36: Example Compound 1 1740 nM + 5-Fluorouracil 4300 nM, molar ratio 1:2.469
[23] = Table 36: Example Compound 1 1740 nM + Azacytidine 4080 nM, molar ratio 1:2.344
[24] = Table 36: Example Compound 1 1740 nM + Cabozantinib 5990 nM, molar ratio 1:3.443
[25] = Table 36: Example Compound 1 1740 nM + Cytarabine 166 nM, molar ratio 1:0.09524
[26] = Table 36: Example Compound 1 1740 nM + Decitabine 3020 nM, molar ratio 1:1.733
[27] = Table 36: Example Compound 1 1740 nM + Etoposide 3780 nM, molar ratio 1:2.174
[28] = Table 36: Example Compound 1 1740 nM + Fludarabine nucleoside 19900 nM, molar ratio 1:11.44
[29] = Table 36: Example Compound 1 1740 nM + Gemcitabine 8.37 nM, molar ratio 1:0.004813
[30] = Table 36: Example Compound 1 1740 nM + Guadecitabine 1050 nM, molar ratio 1:0.6048
[31] = Table 36: Example Compound 1 1740 nM + Lapatinib 5990 nM, molar ratio 1:3.443
[32] = Table 36: Example Compound 1 1740 nM + Luminespib 13.5 nM, molar ratio 1:0.007735
[33] = Table 36: Example Compound 1 1740 nM + Midostaurin 250 nM, molar ratio 1:0.1438
[34] = Table 36: Example Compound 1 1740 nM + Olaparib 14800 nM, molar ratio 1:8.494
[35] = Table 36: Example Compound 1 1740 nM + Oxaliplatin 1060 nM, molar ratio 1:0.6082
[36] = Table 36: Example Compound 1 1740 nM + SCH900776 4590 nM, molar ratio 1:2.639
[37] = Table 36: Example Compound 1 1740 nM + Sunitinib 2800 nM, molar ratio 1:1.608
[38] = Table 36: Example Compound 1 1740 nM + Talazoparib 7980 nM, molar ratio 1:4.587
[39] = Table 36: Example Compound 1 1740 nM + Trifluridine 644 nM, molar ratio 1:0.3703
[40] = Table 36: Example Compound 1 2620 nM + Carboplatin 79500 nM, molar ratio 1:30.35
[41] = Table 36: Example Compound 1 2620 nM + Cisplatin 3610 nM, molar ratio 1:3.669
[42] = Table 36: Example Compound 1 2620 nM + Trifluridine 970 nM, molar ratio 1:0.3703
[43] = Table 36: Example Compound 1 3920 nM + Carboplatin 119000 nM, molar ratio 1:30.35
[44] = Table 36: Example Compound 1 3920 nM + Cisplatin 14400 nM, molar ratio 1:3.669
[45] = Table 36: Example Compound 1 5890 nM + Carboplatin 179000 nM, molar ratio 1:30.35
[46] = Table 36: Example Compound 1 8830 nM + Carboplatin 268000 nM, molar ratio 1:30.35

Structure (SMILES): Cc1ccc(F)c([C@@H](C)[C@H](NS(=O)(=O)c2ccc(Br)cc2C(N)=O)c2n[nH]c(=O)o2)c1C [Example 1, 5-bromo-2-(N-((1 S,2R)-2-(6-fluoro-2,3-dimethylphenyl)-1-(5-oxo-4,5-dihydro-1,3,4-oxadiazol-2-yl)propyl)sulfamoyl)benzamide]
- CI value [1]: 0.363
- Fa value [1]: 0.4283
- CI value [2]: 0.287
- Fa value [2]: 0.5875
- CI value [3]: 0.486
- Fa value [3]: 0.5213
- CI value [4]: 0.818
- Fa value [4]: 0.1823
- CI value [5]: 0.207
- Fa value [5]: 0.7673
- CI value [6]: 0.250
- Fa value [6]: 0.7191
- CI value [7]: 0.318
- Fa value [7]: 0.7989
- CI value [8]: 0.528
- Fa value [8]: 0.3618
- CI value [9]: 0.559
- Fa value [9]: 0.5070
- CI value [10]: 0.558
- Fa value [10]: 0.3478
- CI value [11]: 0.174
- Fa value [11]: 0.8934
- CI value [12]: 0.210
- Fa value [12]: 0.8457
- CI value [13]: 0.309
- Fa value [13]: 0.8880
- CI value [14]: 0.842
- Fa value [14]: 0.4712
- CI value [15]: 0.573
- Fa value [15]: 0.4748
- CI value [16]: 0.405
- Fa value [16]: 0.8089
- CI value [17]: 0.865
- Fa value [17]: 0.6357
- CI value [18]: 0.627
- Fa value [18]: 0.4476
- CI value [19]: 0.255
- Fa value [19]: 0.8825
- CI value [20]: 0.740
- Fa value [20]: 0.7514
- CI value [21]: 0.842
- Fa value [21]: 0.6401
- CI value [22]: 0.835
- Fa value [22]: 0.7276
- CI value [23]: 0.820
- Fa value [23]: 0.6539
- CI value [24]: 0.688
- Fa value [24]: 0.8307
- CI value [25]: 0.619
- Fa value [25]: 0.7121
- CI value [26]: 0.627
- Fa value [26]: 0.5994
- CI value [27]: 0.631
- Fa value [27]: 0.7574
- CI value [28]: 0.537
- Fa value [28]: 0.8431
- CI value [29]: 0.757
- Fa value [29]: 0.8623
- CI value [30]: 0.640
- Fa value [30]: 0.5997
- CI value [31]: 0.400
- Fa value [31]: 0.8672
- CI value [32]: 0.828
- Fa value [32]: 0.8341
- CI value [33]: 0.624
- Fa value [33]: 0.8366
- CI value [34]: 0.575
- Fa value [34]: 0.7460
- CI value [35]: 0.787
- Fa value [35]: 0.7638
- CI value [36]: 0.411
- Fa value [36]: 0.8708
- CI value [37]: 0.811
- Fa value [37]: 0.8380
- CI value [38]: 0.508
- Fa value [38]: 0.7568
- CI value [39]: 0.696
- Fa value [39]: 0.8343
- CI value [40]: 0.519
- Fa value [40]: 0.8844
- CI value [41]: 0.701
- Fa value [41]: 0.9341
- CI value [42]: 0.744
- Fa value [42]: 0.9017
- CI value [43]: 0.474
- Fa value [43]: 0.9458
- CI value [44]: 0.608
- Fa value [44]: 0.9720
- CI value [45]: 0.627
- Fa value [45]: 0.9560
- CI value [46]: 0.635
- Fa value [46]: 0.9773
